SMILES strings stand for the structures.

human LPA1, sequence (Q92633 whole entry): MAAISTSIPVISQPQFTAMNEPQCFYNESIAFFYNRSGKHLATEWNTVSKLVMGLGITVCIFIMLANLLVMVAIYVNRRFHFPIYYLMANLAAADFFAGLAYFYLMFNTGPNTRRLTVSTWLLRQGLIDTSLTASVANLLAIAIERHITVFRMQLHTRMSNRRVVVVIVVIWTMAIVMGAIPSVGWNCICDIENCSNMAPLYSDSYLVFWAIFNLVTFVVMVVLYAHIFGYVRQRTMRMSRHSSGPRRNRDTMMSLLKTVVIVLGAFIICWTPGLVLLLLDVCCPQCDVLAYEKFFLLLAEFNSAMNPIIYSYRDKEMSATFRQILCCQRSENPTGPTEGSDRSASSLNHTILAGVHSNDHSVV

The target in this experiment is human LPA1 (Homo sapiens, UniProt Q92633). Briefly: In vitro functional assay of lysophosphatidic acid receptor 1 activity (calcium flux). The format is cell-based. To be noted: B103 cells stably expressing human LPA1; Fluo-4 NW calcium flux after lysophosphatidic acid (18:1) at EC80; compounds 100 pM to 10 μM; read-out: LPA1 IC50. As for the experimental part:
In vitro functional assay of lysophosphatidic acid receptor 1 activity
Primary compound plates were prepared in 100% DMSO (Sigma-Aldrich), secondary compound plates were prepared at 10× concentration in DiVEM (Invitrogen), and tertiary compound plates were prepared at 3x concentration in assay buffer containing HBSS (no Ca^+2/Mg^+2, Invitrogen) and 0.1% BSA (Sigma-Aldrich). Fluo-4 NW calcium assay dye (Invitrogen) was prepared as per manufacturer's recommendations in assay buffer. B103 cells stably expressing human LPA1(J. Chun lab, UCSD) were grown to confluency in DMEM media (Invitrogen) containing 10% FBS (ATCC), […] (Sigma-Aldrich) and […] Geneticin (Sigma-Aldrich), and detached with Accutase (Sigma-Aldrich) prior to assay. The freshly detached cells were resuspended in growth media and plated in black, clear-bottom 96-well plates (Costar) containing compound (i.e., secondary compound plate) at a density of 5×10^4 cells/well. Once plated, cells were left at room temperature for 30 minutes and then transferred to a 37° C., […] incubator for 24 hours. After 24 hours, the growth media was then removed and freshly prepared Fluo-4 NW calcium assay dye was added to cells. Compounds (i.e. tertiary compound plates) were then added back to the dye/cells, returned to the incubator for 30 minutes, and then kept at room temperature for an additional 30 minutes. Finally, lysophosphatidic acid (18:1) at the EC80 concentration was added and calcium flux measured using FlexStation 3 (Molecular Devices). Sigmoidal dose-response curves were generated by measuring […] over 45 sec and calculating the area under the curve. Dose response curves and IC50 values were generated using Prism (GraphPad). Compounds were tested at a final concentration range of 100 pM to 10 μM in 0.10% DMSO.
Background: A change in cytosolic calcium serves as a functional read-out for many receptors and channels.
What is called IC50 is the concentration that gives 50% inhibition. Take `Cc1cc(OC(F)F)c(NC(=O)C2(c3ccccc3C(C)C)COC2)cn1` [Example 26, N-(4-(difluoromethoxy)-6-methylpyridin-3-yl)-3-(2-isopropylphenyl)oxetane-3-carboxamide]: the concentration for half-maximal inhibition (IC50) is 10 to 100 nM.
Next, `Cc1ccc(NC(=O)C2(c3ccccc3C(C)C)CC(F)(F)C2)c(OC(F)F)n1` [Example 61, N-(2-(difluoromethoxy)-6-methylpyridin-3-yl)-3,3-difluoro-1-(2-isopropylphenyl)cyclobutane-1-carboxamide]: over 1000 nM.
The same measure for `CC(C)c1ccccc1C1(C(=O)Nc2ccc(Br)cc2OC(F)F)CC(=O)N(C)C1` (centres unmarked) [Example 87, N-(4-bromo-2-(difluoromethoxy)phenyl)-3-(2-isopropylphenyl)-1-methyl-5-oxopyrrolidine-3-carboxamide]: 10 to 100 nM; for `Cc1ccc(NC(=O)C2(c3ccccc3C(C)C)CNC(=O)C2)c(OC(F)F)c1` (centres unmarked) [Example 109, N-(2-(difluoromethoxy)-4-methylphenyl)-3-(2-isopropylphenyl)-5-oxopyrrolidine-3-carboxamide]: 10 to 100 nM; for `Cc1ccc(NC(=O)C2(c3ccccc3C(C)C)CC(CC(=O)N(C)C)C2)c(OC(F)F)n1` (centres unmarked) [Example 67, N-(2-(difluoromethoxy)-6-methylpyridin-3-yl)-3-(2-(dimethylamino)-2-oxoethyl)-1-(2-isopropylphenyl)cyclobutane-1-carboxamide]: 100 to 1000 nM.
As to `CC(C)c1ccccc1C1(C(=O)Nc2ncc(Cl)cc2OC(F)F)CC(=O)N(C)C1` (single isomer, unassigned) [Example 7, N-(5-chloro-3-(difluoromethoxy)pyridin-2-yl)-3-(2-isopropylphenyl)-1-methyl-5-oxopyrrolidine-3-carboxamide], the half-maximal inhibitory concentration (IC50) was in the range of 100 to 1000 nM.
Next, `COC[C@H](C)Oc1cc(Cl)ncc1NC(=O)C1(c2ccccc2C(C)C)COC1` [Example 34, (S)-N-(6-chloro-4-((1-methoxypropan-2-yl)oxy)pyridin-3-yl)-3-(2-isopropylphenyl)oxetane-3-carboxamide]: 10 to 100 nM; `COc1ccc(NC(=O)C2(c3ccccc3C(C)C)CCC(N=[N+]=[N-])CC2)c(OC(F)F)n1` (centres unmarked) [Example 84, 4-azido-N-(2-(difluoromethoxy)-6-methoxypyridin-3-yl)-1-(2-isopropylphenyl)cyclohexane-1I-carboxamide]: 10 to 100 nM; `Cc1ccc(NC(=O)C2(c3ccccc3C(C)C)CC(O)C2)c(OC(F)F)n1` (centres unmarked) [Example 58, N-(2-(difluoromethoxy)-6-methylpyridin-3-yl)-3-hydroxy-1-(2-isopropylphenyl)cyclobutane-1-carboxamide]: 100 to 1000 nM.
The same measure for `COc1ccc(NC(=O)[C@]2(c3ccccc3C(C)C)C[C@H](CC(N)=O)C2)c(OC(F)F)n1` [Example 117, cis-3-(2-amino-2-oxoethyl)-N-(2-(difluoromethoxy)-6-methoxypyridin-3-yl)-1-(2-isopropylphenyl)cyclobutane-1-carboxamide]: 10 to 100 nM.
The same measure for `CC(C)c1ccccc1C1(C(=O)Nc2cccnc2OC(F)F)CC(=O)N(C)C1` (centres unmarked) [Example 2, N-(2-(difluoromethoxy)pyridin-3-yl)-3-(2-isopropylphenyl)-1-methyl-5-oxopyrrolidine-3-carboxamide]: 100 to 1000 nM; for `COc1cc(C)ccc1NC(=O)C1(c2ccccc2C(C)C)CNC(=O)C1` (single isomer, unassigned) [Example 102-isomer A, 3-(2-isopropylphenyl)-N-(2-methoxy-4-methylphenyl)-5-oxopyrrolidine-3-carboxamide]: 10 to 100 nM; for `COc1cc(Cl)ncc1NC(=O)C1(c2ccccc2C(C)C)COC1` [Example 19, N-(6-chloro-4-methoxypyridin-3-yl)-3-(2-isopropylphenyl)oxetane-3-carboxamide]: 10 to 100 nM.
On to `CC(C)c1ccccc1C1(C(=O)Nc2ccc(Cl)nc2OC(F)F)CNC(=O)C1` (centres unmarked) [Example 108, N-(6-chloro-2-(difluoromethoxy)pyridin-3-yl)-3-(2-isopropylphenyl)-5-oxopyrrolidine-3-carboxamide], for which the IC50 fell in the range of 10 to 100 nM.
The same measure for `COc1cc(OC(F)F)c(NC(=O)C2(c3ccccc3C(C)C)CC(=O)N(C)C2)cn1` (centres unmarked) [Example 5, N-(4-(difluoromethoxy)-6-methoxypyridin-3-yl)-3-(2-isopropylphenyl)-1-methyl-5-oxopyrrolidine-3-carboxamide]: over 1000 nM; for `Cc1ccc(NC(=O)C2(c3ccccc3C(C)C)CC(O)(C(F)(F)C(=O)O)C2)c(OC(F)F)n1` (mixture of isomers) [Example 53, 2-(3-((2-(difluoromethoxy)-6-methylpyridin-3-yl)carbamoyl)-1-hydroxy-3-(2-isopropylphenyl)cyclobutyl)-2,2-difluoroacetic acid]: under 10 nM.
The same measure for `COc1ccc(NC(=O)[C@]2(c3ccccc3C(C)C)C[C@H](Cc3nnn[nH]3)C2)c(OC(F)F)n1` [Example 119, cis-3-((1H-tetrazol-5-yl)methyl)-N-(2-(difluoromethoxy)-6-methoxypyridin-3-yl)-1-(2-isopropylphenyl)cyclobutane-1-carboxamide]: 10 to 100 nM; for `CC(C)Oc1cc(Cl)ncc1NC(=O)C1(c2ccccc2C(C)C)COC1` [Example 33, N-(6-chloro-4-isopropoxypyridin-3-yl)-3-(2-isopropylphenyl)oxetane-3-carboxamide]: 10 to 100 nM.
Consider `COC[C@H](C)Oc1nc(OC)ccc1NC(=O)C1(c2ccccc2C(C)C)COC1` [Example 31, (S)-3-(2-isopropylphenyl)-N-(6-methoxy-2-((1-methoxypropan-2-yl)oxy)pyridin-3-yl)oxetane-3-carboxamide], for which the IC50 is 10 to 100 nM.
Next, `COc1cc(C)ccc1NC(=O)C1(c2ccccc2C(C)C)CNC(=O)C1` (centres unmarked) [Example 101, 3-(2-isopropylphenyl)-N-(2-methoxy-4-methylphenyl)-5-oxopyrrolidine-3-carboxamide]: 10 to 100 nM; `COc1nc(C)ccc1NC(=O)C1(c2ccccc2C(C)C)CNC(=O)C1` (centres unmarked) [Example 106, 3-(2-isopropylphenyl)-N-(2-methoxy-6-methylpyridin-3-yl)-5-oxopyrrolidine-3-carboxamide]: 100 to 1000 nM.
Next, `COc1ccc(NC(=O)C2(c3ccccc3C(C)C)COC2)c(OC)n1` [Example 18, N-(2,6-dimethoxypyridin-3-yl)-3-(2-isopropylphenyl)oxetane-3-carboxamide]: 100 to 1000 nM; `CC(C)c1ccccc1C1(C(=O)Nc2ncc(Cl)cc2OC(F)F)CC(O)(C(F)(F)C(=O)O)C1` (single isomer, unassigned) [Example 55-isomer A, 2-(3-((5-chloro-3-(difluoromethoxy)pyridin-2-yl)carbamoyl)-1-hydroxy-3-(2-isopropylphenyl)cyclobutyl)-2,2-difluoroacetic acid]: 10 to 100 nM; `Cc1ccc(NC(=O)C2(c3ccccc3C(C)C)CC(NC3CC3)C2)c(OC(F)F)n1` (single isomer, unassigned) [Example 40-isomer B, 3-(cyclopropylamino)-N-(2-(difluoromethoxy)-6-methylpyridin-3-yl)-1-(2-isopropylphenyl)cyclobutane-1-carboxamide]: 100 to 1000 nM.
Next, `COc1ccc(NC(=O)C2(c3ccccc3C(C)C)COC2)c(OC(F)F)n1` [Example 15, N-(2-(difluoromethoxy)-6-methoxypyridin-3-yl)-3-(2-isopropylphenyl)oxetane-3-carboxamide]: under 10 nM; `CC(C)c1ccccc1C1(C(=O)Nc2ncc(Cl)cc2OC(F)F)CC(CC(=O)O)C1` (centres unmarked) [Example 47, 2-(3-((5-chloro-3-(difluoromethoxy)pyridin-2-yl)carbamoyl)-3-(2-isopropylphenyl)cyclobutyl)acetic acid]: 10 to 100 nM.
As to `Cc1ccc(NC(=O)C2(c3ccccc3C(C)C)CC(C)(O)C2)c(OC(F)F)n1` (single isomer, unassigned) [Example 51-isomer B, N-(2-(difluoromethoxy)-6-methylpyridin-3-yl)-3-hydroxy-1-(2-isopropylphenyl)-3-methylcyclobutane-1-carboxamide], the IC50 was 100 to 1000 nM.
Take `CC(C)c1ccccc1C1(C(=O)Nc2ccc(F)cc2OC(F)F)CC(=O)N(C)C1` (centres unmarked) [Example 88, N-(2-(difluoromethoxy)-4-fluorophenyl)-3-(2-isopropylphenyl)-1-methyl-5-oxopyrrolidine-3-carboxamide]: the half-maximal inhibitory concentration (IC50) was 100 to 1000 nM.
Next, `COc1ccc(NC(=O)C2(c3ccccc3C(C)C)CCC3(CC2)OCCO3)c(OC(F)F)n1` [Example 79, N-(2-(difluoromethoxy)-6-methoxypyridin-3-yl)-8-(2-isopropylphenyl)-1,4-dioxaspiro[4.5]decane-8-carboxamide]: 100 to 1000 nM.

Source of the values: patent publication US20250179045A1, “LPAR1 ANTAGONISTS AND USES THEREOF” (Contineum Therapeutics, Inc., priority 2021, published 2025).
